Each block holds one compound with its values, some of them ahead of it.
How the values were obtained:
D-aminoacylase [1] = test: Effects of various metal salts and reagents on residual enzyme activity; type: biochemical, Hypomyces mycophilus IFO 6785; conditions: for Relative activity (%): pH 9.5; for effect on the enzyme (in words): summary of Tables 6 and 7
[2] = system: D-aminoacylase (crude enzyme) of Auricularia auriculajudae IFO 5949; test: Crude enzyme activity for each N-Ac-D-amino acid substrate; type: biochemical; conditions: Auricularia auriculajudae IFO 5949 crude enzyme; 20 mM substrate, 1 mM CoCl2, 50 mM phosphate buffer pH 7.0
Procedure: (§1) Auricularia auriculajudae IFO 5949, Pythium aphanidermaatum IFO 7030, and Menisporopsis novaezelandiae IFO 9179 were each inoculated into sterilized media (100 ml each) (Czapek Dox Broth for IFO 5949, YM1 medium for IFO 7030, and POTATO DEXTROSE BROTH for IFO 9179) in 500-ml Erlenmeyer flasks. The fungi were cultured on a rotary shaker at 210 rpm at 24° C. for 7 days and collected by centrifugation using a […] centrifuge with a RPR10-2 rotor at 8,000 rpm (12,500×g) for 20 min. […] Disrupted cells thus obtained were centrifuged using a […] centrifuge with a RPR20-2 rotor at 17,500 rpm (38,000×g) for 30 min at 4° C. to obtain the supernatant as the crude enzyme. […] Figures in the table denote the amount (mM) of D-amino acids produced from the corresponding N-acetyl-D-amino acids. The D-aminoacylase activity was detected in all the strains tested, producing D-amino acid from the corresponding N-acetyl-D-amino acid.

[3] = system: D-aminoacylase (crude enzyme) of Menisporopsis novaezelandiae IFO 9179; test: as above; type: biochemical; conditions: Menisporopsis novaezelandiae IFO 9179 crude enzyme; 20 mM substrate, 1 mM CoCl2, 50 mM phosphate buffer pH 7.0
Procedure: as §1

D-aminoacylase [4] = test: Substrate specificity of purified D-aminoacylase (TNBS method); type: biochemical, Hypomyces mycophilus IFO 6785; conditions: for percentage of the specific activity compared with that for N-acetyl-D-methionine taken as 100%, D-enantiomer / percentage of the specific activity compared with that for N-acetyl-D-methionine taken as 100%, L-enantiomer: 20 mM substrate, 50 mM Tris-HCl pH 7.5, 30° C., 20 min; for activity of the enzyme for the substrate (in words): summary of Table 5
Procedure: The enzyme activity was assayed by determining the amount of amino acid produced using the TNBS method and the HPLC method. In the TMBS method, 100 mM Na2B4O7 (0.5 ml) was added to a sample solution containing amino acid (0.5 ml), 20 μl of 110 mM TNBS (trinitrobenzenesulfonic acid) was then added, and the resulting mixture was quickly stirred. After 5 min, 100 mM NaH2PO4 containing 1.5 mM Na2SO3 (2 ml) was added to the reaction mixture to terminate the color reaction, and the absorbance at 420 nm was measured. HPLC was performed by subjecting a sample solution containing amino acid to high-performance liquid chromatography using an ODS column (column, Wakosil II 5C18 (4.6 dia.×250 mm) (Wako Pure Chemical); eluent, CH3CN/50 mM KH2PO4. H3PO4 (pH 2.5)=2:8; detection, A280 nm; and flow rate, 1.0 ml/min). The retention times were 3.5 min for D-tryptophan and 9.8 min for N-acetyl-D-tryptophan. Using D-tryptophan as the assay standard, one unit (or U) of the enzyme was defined as the amount of the enzyme required to produce 1 μmol of D-tryptophan at 30° C. for 1 min.
Substrate specificity of the enzyme was expressed as the percentage of the specific activity compared with that for N-acetyl-D-methionine taken as 100%. N-chloroacetyl-D-phenylalanine, N-acetyl-D-valine, N-acetyl-D-phenylalanine, N-acetyl-D-tryptophan, N-acetyl-D-leucine, N-acetyl-L-valine, N-acetyl-L-phenylalanine, N-acetyl-L-tryptophan, and N-acetyl-L-leucine substrates were used for the comparison. The enzyme reaction was performed in 50 mM Tris-HCl (pH 7.5) containing 1 µl of the enzyme solution and 20 mM of each substrate (total volume 1.0 ml) at 30° C. for 20 min, and terminated by adding 0.5 ml of a TCA reaction terminating solution according to Tsai et al. (consisting of 110 mM trichloroacetic acid, 220 mM sodium acetate, and 330 mM acetic acid). The enzyme activity was assayed by the TNBS method as described in Example 4(2).

[5] = system: Hypomyces mycophilus IFO 6785 strain; test: D-amino acid production from N-acetyl-D-amino acid by washed fungal cells; type: cell-based; conditions: Hypomyces mycophilus IFO 6785 cells; 0.1% substrate, Tris-HCl pH 7.5, 30° C., 24 hours
Procedure: (§2) A platinum loopful of Hypomyces aurantius IFO 6847 strain, Hypomyces broomeanus IFO 9164 strain, Hypomyces rosellus IFO 6911 strain, Hypomyces chrysospermus IFO 6817 strain, Hypomyces sepulcralis IFO 9102 strain, Hypomyces subiculosus IFO 6892 strain, Hypomyces mycophilus ATCC 76474 or IFO 6785 strain, or Fusarium solani IFO 9974 or IFO 9975 strain was inoculated into 25 ml of YM medium (containing 0.3% yeast extract, 0.3% malt extract, 0.5% peptone, and 2.0% glucose, pH 6.0) in a 500-ml shouldered flask. The fungi were shake-cultured at 24° C. for 3 days. After culturing, a 5-ml aliquot of the culture medium was centrifuged in a refrigerated centrifuge to collect the fungal cells. The cells were washed with physiological saline solution (5 ml) and collected by centrifugation again. A reaction solution (containing 0.1% N-acetyl-D-amino acid shown in Table 1 below in Tris-HCl buffer, pH 7.5) was then added to the cells thus collected. The mixture was incubated in a 5-ml test tube with shaking at 30° C. for 24 hours.
(§3) D-Amino acid thus produced was determined by high-performance liquid chromatography (column, CROWNPAK CR (Daicel Chemical); column temperature, 26° C.; cooled in ice for only valine; mobile phase, HClO4 aqueous solution, pH 2.0; flow rate, 1 ml/min; and detection, 200 nm).

[6] = system: Hypomyces subiculosus IFO 6892 strain; test: as above; type: cell-based; conditions: Hypomyces subiculosus IFO 6892 cells; 0.1% substrate, Tris-HCl pH 7.5, 30° C., 24 hours
Procedure: as §2, §3

[7] = system: Fusarium solani IFO 9975 strain; test: as above; type: cell-based; conditions: Fusarium solani IFO 9975 cells; 0.1% substrate, Tris-HCl pH 7.5, 30° C., 24 hours
Procedure: as §2, §3

[8] = system: Hypomyces aurantius IFO 6847 strain; test: as above; type: cell-based; conditions: Hypomyces aurantius IFO 6847 cells; 0.1% substrate, Tris-HCl pH 7.5, 30° C., 24 hours
Procedure: as §2, §3

[9] = system: Hypomyces mycophilus ATCC 76474; test: as above; type: cell-based; conditions: Hypomyces mycophilus ATCC 76474 cells; 0.1% substrate, Tris-HCl pH 7.5, 30° C., 24 hours
Procedure: as §2, §3

Fusarium solani IFO 9974 = test: as above; type: cell-based; conditions: Fusarium solani IFO 9974 cells; 0.1% substrate, Tris-HCl pH 7.5, 30° C., 24 hours
Procedure: as §2, §3

[10] = system: Hypomyces sepulcralis IFO 9102 strain; test: as above; type: cell-based; conditions: Hypomyces sepulcralis IFO 9102 cells; 0.1% substrate, Tris-HCl pH 7.5, 30° C., 24 hours
Procedure: as §2, §3

[11] = system: Hypomyces chrysospermus IFO 6817 strain; test: as above; type: cell-based; conditions: Hypomyces chrysospermus IFO 6817 cells; 0.1% substrate, Tris-HCl pH 7.5, 30° C., 24 hours
Procedure: as §2, §3

[12] = system: Hypomyces broomeanus IFO 9164 strain; test: as above; type: cell-based; conditions: Hypomyces broomeanus IFO 9164 cells; 0.1% substrate, Tris-HCl pH 7.5, 30° C., 24 hours
Procedure: as §2, §3

[13] = system: Hypomyces rosellus IFO 6911 strain; test: as above; type: cell-based; conditions: Hypomyces rosellus IFO 6911 cells; 0.1% substrate, Tris-HCl pH 7.5, 30° C., 24 hours
Procedure: as §2, §3

[14] = metal ion 1 mM, kept at 40° C. for 30 min, residual activity, no addition = 100
[15] = compound 1 mM, kept at 40° C. for 30 min, residual activity, no addition = 100

Compound: [Ca+2].[Cl-].[Cl-] [CaCl2]
Relative activity (%) (D-aminoacylase [1]; [14]): 104%

Compound: [Cl-].[Cl-].[Co+2] [CoCl2]
Relative activity (%) (D-aminoacylase [1]): 63.1%

Compound: [Co+2] [Co^2+]
effect on the enzyme (in words) (D-aminoacylase [1]): inhibited

Relative activity (%) (D-aminoacylase [1]; [15]): 20.4%
Compound: O=S(=O)([O-])[O-].[Cu+2] [CuSO4]

Compound: [Cu+2] [Cu^2+]
effect on the enzyme (in words) (D-aminoacylase [1]): inhibited

Relative activity (%) (D-aminoacylase [1]; [15]): 96.0% | effect on the enzyme (in words) (D-aminoacylase [1]): not being inhibited
Compound: O=C(O)CN(CCN(CC(=O)O)CC(=O)O)CC(=O)O [EDTA]

Relative activity (%) (D-aminoacylase [1]; [15]): 90.9%
Compound: O=C(O)CN(CCOCCOCCN(CC(=O)O)CC(=O)O)CC(=O)O [EGTA]

Compound: [Cl][Hg][Cl] [HgCl2]
Relative activity (%) (D-aminoacylase [1]): 13.4%

Compound: [Hg+2] [Hg^2+]
effect on the enzyme (in words) (D-aminoacylase [1]): inhibited

Compound: NO [Hydroxylamine]
Relative activity (%) (D-aminoacylase [1]; [15]): 96.2%

Compound: NC(=O)CI [Iodoacetamide]
Relative activity (%) (D-aminoacylase [1]): 185% | effect on the enzyme (in words) (D-aminoacylase [1]): activated

Compound: [Cl-].[K+] [KCl]
Relative activity (%) (D-aminoacylase [1]; [14]): 102%

Compound: [Cl-].[Cl-].[Mg+2] [MgCl2]
Relative activity (%) (D-aminoacylase [1]): 98.0%

Compound: [Cl][Mn][Cl] [MnCl2]
Relative activity (%) (D-aminoacylase [1]; [14]): 100%

amount of D-amino acids produced from the corresponding N-acetyl-D-amino acids [2]: 1.10 mM | amount of D-amino acids produced from the corresponding N-acetyl-D-amino acids [3]: 0.66 mM
Compound: CC(=O)N[C@H](CC(=O)O)C(=O)O [N-Acetyl-D-aspartic acid]

percentage of the specific activity compared with that for N-acetyl-D-methionine taken as 100%, D-enantiomer (D-aminoacylase [4]): 0%
Compound: CC(=O)N[C@H](CC(N)=O)C(=O)O [N-acetyl-D-asparagine]

percentage of the specific activity compared with that for N-acetyl-D-methionine taken as 100%, D-enantiomer (D-aminoacylase [4]): 0%
Compound: CC[C@@H](C)[C@@H](NC(C)=O)C(=O)O [N-acetyl-D-isoleucine]

amount of D-amino acids produced from the corresponding N-acetyl-D-amino acids [2]: 2.68 mM | percentage of the specific activity compared with that for N-acetyl-D-methionine taken as 100%, D-enantiomer (D-aminoacylase [4]): 77.5% | activity of the enzyme for the substrate (in words) (D-aminoacylase [4]): very active
Compound: CC(=O)N[C@H](CC(C)C)C(=O)O [N-acetyl-D-leucine]
D-amino acid produced from N-acetyl-D-amino acid [5]: 0.55 mg/mL | D-amino acid produced from N-acetyl-D-amino acid [6]: 0.10 mg/mL | D-amino acid produced from N-acetyl-D-amino acid [7]: 0.21 mg/mL | D-amino acid produced from N-acetyl-D-amino acid [8]: 0 mg/mL | D-amino acid produced from N-acetyl-D-amino acid [9]: 0.11 mg/mL | D-amino acid produced from N-acetyl-D-amino acid (Fusarium solani IFO 9974): 0.14 mg/mL | D-amino acid produced from N-acetyl-D-amino acid [10]: 1.60 mg/mL | D-amino acid produced from N-acetyl-D-amino acid [11]: 1.05 mg/mL | D-amino acid produced from N-acetyl-D-amino acid [12]: 0 mg/mL | D-amino acid produced from N-acetyl-D-amino acid [13]: 0.3 mg/mL

percentage of the specific activity compared with that for N-acetyl-D-methionine taken as 100%, D-enantiomer (D-aminoacylase [4]): 0%
Compound: CC(=O)N1CCC[C@@H]1C(=O)O [N-acetyl-D-proline]

percentage of the specific activity compared with that for N-acetyl-D-methionine taken as 100%, L-enantiomer (D-aminoacylase [4]): 0% | activity of the enzyme for the substrate (in words) (D-aminoacylase [4]): inactive
Compound: CC(=O)N[C@@H](CC(C)C)C(=O)O [N-acetyl-L-leucine]

percentage of the specific activity compared with that for N-acetyl-D-methionine taken as 100%, L-enantiomer (D-aminoacylase [4]): 0% | activity of the enzyme for the substrate (in words) (D-aminoacylase [4]): inactive
Compound: CSCC[C@H](NC(C)=O)C(=O)O [N-acetyl-L-methionine]

percentage of the specific activity compared with that for N-acetyl-D-methionine taken as 100%, L-enantiomer (D-aminoacylase [4]): 0% | activity of the enzyme for the substrate (in words) (D-aminoacylase [4]): inactive
Compound: CC(=O)N[C@@H](Cc1ccccc1)C(=O)O [N-acetyl-L-phenylalanine]

percentage of the specific activity compared with that for N-acetyl-D-methionine taken as 100%, L-enantiomer (D-aminoacylase [4]): 0% | activity of the enzyme for the substrate (in words) (D-aminoacylase [4]): inactive
Compound: CC(=O)N[C@@H](Cc1c[nH]c2ccccc12)C(=O)O [N-acetyl-L-tryptophan]

percentage of the specific activity compared with that for N-acetyl-D-methionine taken as 100%, L-enantiomer (D-aminoacylase [4]): 0% | activity of the enzyme for the substrate (in words) (D-aminoacylase [4]): inactive
Compound: CC(=O)N[C@H](C(=O)O)C(C)C [N-acetyl-L-valine]

percentage of the specific activity compared with that for N-acetyl-D-methionine taken as 100%, D-enantiomer (D-aminoacylase [4]): 0%
Compound: O=C(N[C@H](Cc1ccccc1)C(=O)O)c1ccccc1 [N-benzoyl-D-phenylalanine]

Compound: O=C(CCl)N[C@H](Cc1ccccc1)C(=O)O [N-chloroacetyl-D-phenylalanine]
percentage of the specific activity compared with that for N-acetyl-D-methionine taken as 100%, D-enantiomer (D-aminoacylase [4]): 708% | activity of the enzyme for the substrate (in words) (D-aminoacylase [4]): especially active

Relative activity (%) (D-aminoacylase [1]; [15]): 15.2%
Compound: CCN1C(=O)C=CC1=O [N-ethylmaleimide]

Compound: [Cl][Ni][Cl] [NiCl2]
Relative activity (%) (D-aminoacylase [1]): 57.7%

Compound: O=C(O)c1cc[c]([Hg][Cl])cc1 [P-Chloromercuribenzoic acid]
Relative activity (%) (D-aminoacylase [1]; compound 0.5 mM, kept at 40° C. for 30 min, residual activity, no addition = 100): 99.6%

Compound: O=S(=O)(F)Cc1ccccc1 [PMSF, phenyl methyl sulfonyl fluoride]
Relative activity (%) (D-aminoacylase [1]): 94.2%

Compound: [Cl-].[Cl-].[Zn+2] [ZnCl2]
Relative activity (%) (D-aminoacylase [1]): 26.2%

Relative activity (%) (D-aminoacylase [1]; [15]): 11.6%
Compound: O=S(=O)([O-])[O-].[Zn+2] [ZnSO4]

Compound: [Zn+2] [Zn^2+]
effect on the enzyme (in words) (D-aminoacylase [1]): inhibited

Relative activity (%) (D-aminoacylase [1]; [15]): 78.8%
Compound: c1cnc2c(c1)ccc1cccnc12 [o-Phenanthroline]

Compound: Penicillin
percentage of the specific activity compared with that for N-acetyl-D-methionine taken as 100%, D-enantiomer (D-aminoacylase [4]): 0%

Source: patent publication US6905861B2, “D-aminoacylases, method for producing the same, and method for producing D-amino acids using the same” (Daicel Chemical Industries, Ltd., priority 1998, dated 2005)
